# Data reported in ChEMBL document CHEMBL5390281.
# Calls of active or inactive are those of the source. No cut-off for these calls is given here.
# Columns and labels:
# Assay type in all cases: functional, organism-based
# Mus musculus [1] = test: Antinociceptive activity in Swiss mouse assessed as reduction in pain like behavior of mouse in second phase at 5 mg/kg, ip pretreated for 40 min followed by formalin challenge and measured after 30 min; conditions: time 70.0 min
# Mus musculus [2] = test: Antinociceptive activity in Swiss mouse assessed as reduction in pain like behavior of mouse in first phase at 5 mg/kg, ip pretreated for 40 min followed by formalin challenge and measured after 30 min; conditions: time 70.0 min
# Mus musculus [3] = test: Antiinflammatory activity against CFA-induced persistent inflammation model of Swiss mouse assessed as prevention in paw edema formation at 2 mg/kg, ip incubated for 40 mins by plethysmometer analysis
# Mus musculus [4] = test: Antinociceptive activity against CFA-induced persistent inflammation model of Swiss mouse assessed as prevention in CFA-induced allodynia at 2 mg/kg, ip incubated for 40 mins by von frey test
# Mus musculus [5] = test: Antinociceptive activity against thermal stimulated-induced persistent inflammation model of Swiss mouse assessed as increased tail flick latency at 5 mg/kg, ip pretreated with compound for 40 mins followed by thermal induction and measured after 2 hrs by tail flick test; conditions: time 160.0 min
# Mus musculus [6] = test: (§1) Antinociceptive activity against noxious cold stimulated-induced persistent inflammation model of Swiss mouse assessed as reduction in pain like behavior at 5 mg/kg, ip pretreated with compound for 40 min followed by noxious cold stimulation and measured after 2 hrs by cold plate test; conditions: time 160.0 min
# Mus musculus [7] = test: as §1, with “stimulated-persistent” for “stimulated-induced persistent”, “3 days in the presence of naloxone” for “2 hrs”; conditions: time 4360.0 min
# Mus musculus [8] = test: Antinociceptive activity against thermal stimulated-induced persistent inflammation model of Swiss mouse assessed as increased tail flick latency at 5 mg/kg, ip pretreated with compound for 40 min followed thermal stimulation and measured after 3 days in the presence of naloxone by tail flick test; conditions: time 4360.0 min
Structure (SMILES),Activity (Mus musculus [1]),Activity (Mus musculus [2]),Activity (Mus musculus [3]),Activity (Mus musculus [4]),Activity (Mus musculus [5]),Activity (Mus musculus [6]),Activity (Mus musculus [7]),Activity (Mus musculus [8])
COc1ccc2c(c1)c(CC(=O)O)c(C)n2C(=O)c1ccc(Cl)cc1,Active,inactive,,,,,,
C[C@@H]1C[C@H]2[C@@H]3CCC4=CC(=O)C=C[C@]4(C)[C@@]3(F)[C@@H](O)C[C@]2(C)[C@@]1(O)C(=O)CO,,,Active,Active,,,,
CN1CC[C@]23c4c5ccc(O)c4O[C@H]2[C@@H](O)C=C[C@H]3[C@H]1C5,Active,Active,,,Active,Active,inactive,inactive
